Data reported in US20240065983A1, “COMPOSITION AND METHOD FOR TREATING COVID-19” (University of South Florida, priority 2021, published 2024).

Columns and labels:
human coronavirus NL63 = test: Gene expression (qPCR) in NL63 infected Calu3 cells; format: cell-based; details: NL63 0.1 MOI, LG 20 uM, 48 hrs PI
Protocol: (§1) FIG. 2A-B are a series of graphs depicting broad spectrum anti-viral and anti-inflammatory activity of LG. Histograms showing mRNA expression assessed by qPCR. A) Effect of LG on poly I:C (P I:C) stimulated Calu 3 cells with or without LG treatment, B) Anti-inflammatory effect of LG treatment in NL63 infected Calu 3 cells. Cells were collected 48 hrs of post infection (PI) with NL63 virus (0.1 MOI) (C, Control) and treated with LG (20 uM) (T, Treatment), n=3, Data expressed as mean±SEM, * Compared to NL63, *p<0.05, **p<0.005, ***p<0.0005.
(§2) To examine whether LG has broad spectrum antiviral activity, Calu3 cells are stimulated with 10 ug/ml poly IC for 24 h, treated with 20 uM LG for 48 h, and then RNA was isolated for gene expression analyses. […] Further the inventors examined the effect of LG on the Calu3 lung cells infected with human coronavirus NL63.

[1] = system: icSARS-CoV-2nMG (CoV2-GFP); format: cell-based, SARS-CoV-2
[2] = system: mouse coronavirus MHV-A59-GFP; test: microbe, parasite or virus in culture; details: read-out: inhibition of infection
[3] = system: mouse coronavirus MHV-A59-GFP
Delta strain = test: Plaque assay, Delta strain; format: cell-based, SARS-CoV-2
WA strain = test: Plaque assay, WA strain; format: cell-based, SARS-CoV-2
RBD-ACE2 interaction = target: T1, RBD-ACE2 interaction (Severe acute respiratory syndrome coronavirus 2, UniProt P0DTC2); format: binding; details: compared to the negative control
T1 construct: purchased Genscript

[4] = system: mouse coronavirus (MHV), K18 hACE2 transgenic mouse, and mouse adapted coronavirus (MA10) infection models
[5] = system: poly I:C stimulated Calu 3 cells; test: Gene expression (qPCR) in poly I:C stimulated Calu3 cells; format: cell-based; details: 10 ug/ml poly IC 24 h, 20 uM LG 48 h
Protocol: as §1, §2

icSARS-CoV-2nMG = format: cell-based, SARS-CoV-2

Row | Compound | expression of anti-inflammatory genes at transcript level (human coronavirus NL63) | CoV2 infection [1] | infected GFP-positive cells ([1]; LG 20 uM, WA strain, Caco2) | inhibition at 20 µM [2] | cell killing (bright field images) ([3]; 20 uM LG, DBT cells) | inhibition of coronavirus infection (dose dependence) ([3]; DBT cells, GFP) | reduction in infection versus Remdesvir ([3]; LG 20 uM vs Remdesvir 10 nM) | N transcript ([3]; LG 20 uM, compared to vehicle control) | reduction in plaque titers (Delta strain) | reduction in plaque titers (WA strain) | interference of RBD-ACE2 interaction (RBD-ACE2 interaction) | efficacy in in vivo studies [4] | expression of IL-6, IL1β, IFNγ, TNFα, NFkB, NLRP3 [5] | expression of IL-10 and PPARγ [5] | viral infection as seen by N gene expression (icSARS-CoV-2nMG)
1 | CC(O)c1ccc(CCOc2ccc(CC3SC(=O)NC3=O)cc2)nc1 (stereo not drawn) [LG, leriglitazone] | altered expression of anti-inflammatory genes at the transcript level similar to that found in poly-IC experiment | dose-dependent decrease of CoV2 infection | significant reduction in infected GFP-positive cells | > 70% | without killing the cells | inhibited coronavirus infection in a dose-dependent fashion | significantly higher reduction in infection | significant reduction in N transcript | > 2 log | > 2 log | significantly inhibited the RBD-ACE2 interaction in a dose-dependent manner | > 70% | inhibits expression | increases expression | –
2 | CCCCC/C=C\C/C=C\CCCCCCCC(=O)O [LLA, linoleic acid] | – | – | – | – | – | – | – | – | – | – | – | – | – | – | significantly decreased viral infection
